Results taken from patent US10633389B2, “CARM1 inhibitors and uses thereof” (Epizyme, Inc., priority 2013, dated 2020).

What was measured:
[1] = target: human CARM1 (PRMT4) (Homo sapiens (Human), UniProt Q86X55); assay: CARM1 enzyme assay on peptide substrate (3H-SAM Flashplate); details: Biochemical potencies, read-out: Biochem IC50
Description: S-adenosylmethionine (SAM), S-adenosylhomocysteine (SAH), bicine, Tween20, dimethylsulfoxide (DMSO), bovine skin gelatin (BSG), sodium butyrate and Tris(2-carboxyethyl)phosphine hydrochloride solution (TCEP) were purchased from Sigma-Aldrich at the highest level of purity possible. ^3H-SAM was purchase from American Radiolabeled Chemicals with a specific activity of 80 Ci/mmol. 384-well streptavidin Flashplates were purchased from PerkinElmer.
Peptide representative of human histone H3 residues 16-30 was synthesized with an N-terminal linker-affinity tag motif and a C-terminal amide cap by 21st Century Biochemicals. […] The sequence was Biot-Ahx-[…]-amide and contained a monomethylated arginine at position 26 (SEQ ID NO.:1).
The gene sequence encoding isoform 1 containing a deletion of amino acids 539-561 was amplified subsequently and subcloned into pFastBacMam (Viva Biotech).
Recombinant baculovirus were generated according to Bac-to-Bac kit instructions (Life Technologies). Protein over-expression was accomplished by infecting exponentially growing HEK 293F cell culture at 1.3×10^6 cell/ml with virus (MOI=10) in the presence of 8 mM sodium butyrate. Infections were carried out at 37° C. for 48 hours, harvested by centrifugation, and stored at −80° C. for purification.
Expressed full-length human Flag- and His-tagged CARM1 protein was purified from cell paste by anti-flag M2 affinity chromatography with resin equilibrated with buffer containing 20 mM Tris, 150 mM NaC, 5% glycerol, pH 7.8. Column was washed with 500 mM NaCl in buffer A and Flag-CARM1-His was eluted with 200 ug/ml FLAG peptide in buffer A. Pooled fractions were dialyzed in 20 mM Tris, 150 mM NaCl, 5% glycerol and 1 mM DTT, pH 7.8.
The assays were all performed in a buffer consisting of 20 mM Bicine (pH=7.6), 1 mM TCEP, 0.005% BSG, and 0.002% Tween 20, prepared on the day of use. Compounds in 100% DMSO (1 ul) were spotted into a polypropylene 384-well V-bottom plates (Greiner) using a Platemate Plus outfitted with a 384-channel head (Thermo Scientific). DMSO (1 ul) was added to Columns 11, 12, 23, 24, rows A-H for the maximum signal control and 1 ul of SAH, a known product and inhibitor of CARM1, was added to columns 11, 12, 23, 24, rows I-P for the minimum signal control. A cocktail (40 ul) containing the CARM1 enzyme was added by Multidrop Combi (Thermo-Fisher). The compounds were allowed to incubate with CARM1 for 30 min at room temperature, then a cocktail (10 ul) containing ^3H-SAM and peptide was added to initiate the reaction (final volume=51 ul). The final concentrations of the components were as follows: CARM1 was 0.25 nM, ^3H-SAM was 30 nM, peptide was 250 nM, SAH in the minimum signal control wells was 1 mM, and the DMSO concentration was 2%. The assays were stopped by the addition of non-radiolabeled SAM (10 ul) to a final concentration of 300 uM, which dilutes the ^3H-SAM to a level where its incorporation into the peptide substrate is no longer detectable. 50 ul of the reaction in the 384-well polypropylene plate was then transferred to a 384-well Flashplate and the biotinylated peptides were allowed to bind to the streptavidin surface for at least 1 hour before being washed once with 0.1% Tween20 in a Biotek ELx405 plate washer. The plates were then read in a PerkinElmer TopCount plate reader to measure the quantity of ^3H-labeled peptide bound to the Flashplate surface, measured as disintegrations per minute (dpm) or alternatively, referred to as counts per minute (cpm).
The Hill Coefficient normally allowed to float but may also be fixed at 1 in a 3-parameter fit.

[2] = test system: asymmetric di-methyl PABP1 in RKO cells; assay: RKO methylation assay, In Cell Western (ICW) for asymmetric di-methyl PABP1; assay type: cell-based; details: Homo sapiens, RKO, Cellular potencies, ICW PABP1me2a
Summary of the method: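 RKO cells treated with compound for 48 h at 37 °C, then fixed, permeabilized and immunostained for asymmetric di-methyl PABP1, with DRAQ5 as DNA stain. Infrared 700/800 nm signal ratio normalized to DMSO and 20 μM reference-compound controls; IC50 from triplicate wells.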

Sequence of human CARM1 (PRMT4) (Q86X55 other isoform, or with tags, fused parts or gaps isoform Q86X55-1): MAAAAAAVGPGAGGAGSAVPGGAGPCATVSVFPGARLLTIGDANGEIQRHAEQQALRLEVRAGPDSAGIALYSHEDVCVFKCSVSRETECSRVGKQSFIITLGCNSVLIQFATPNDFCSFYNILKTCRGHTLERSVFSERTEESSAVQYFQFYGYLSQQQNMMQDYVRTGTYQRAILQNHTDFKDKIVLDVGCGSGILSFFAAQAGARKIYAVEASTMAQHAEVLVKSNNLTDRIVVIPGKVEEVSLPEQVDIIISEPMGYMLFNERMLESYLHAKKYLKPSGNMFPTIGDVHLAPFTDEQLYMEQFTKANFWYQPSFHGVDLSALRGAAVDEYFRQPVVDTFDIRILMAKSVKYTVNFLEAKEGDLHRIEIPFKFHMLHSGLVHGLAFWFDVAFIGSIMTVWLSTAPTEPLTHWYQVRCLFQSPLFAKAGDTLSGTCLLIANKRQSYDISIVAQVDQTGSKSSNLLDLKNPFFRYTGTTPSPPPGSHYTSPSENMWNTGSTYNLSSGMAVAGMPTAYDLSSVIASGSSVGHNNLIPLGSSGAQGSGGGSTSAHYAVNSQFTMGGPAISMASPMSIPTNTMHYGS

Structure (SMILES)	IC50 [1]	IC50 [2]
CNCC(O)COc1cccc(-c2nc(N[C@@H]3CCOC3)c(C)c(N3CCN(C(C)=O)C4(CC4)C3)n2)c1 (stereo partly shown) [Example 423-1a]	100 to 1000 nM	10000 to 20000 nM
CNCC(O)COc1cccc(-c2nc(N[C@@H]3CCOC3)c(C)c(N(CCC#N)C3CC3)n2)c1 (stereo partly shown) [Example 426-1a]	100 to 1000 nM	10000 to 20000 nM
CNCC(O)COc1cccc(-c2nc(N[C@@H]3CCOC3)c(C)c(N3CCNC(C(F)(F)F)C3)n2)c1 (stereo partly shown) [Example 428-1a]	100 to 1000 nM	10000 to 20000 nM
CNCC(O)COc1cccc(-c2nc(N[C@@H]3CCOC3)c(C)c(N3CC[C@H](N(C)C(C)=O)C3)n2)c1 (stereo partly shown) [Example 430-1a]	100 to 1000 nM	10000 to 20000 nM
CNCC(O)COc1cccc(-c2nc(NC3CCOC3)c(C)c(N3CC[C@H](S(C)(=O)=O)C3)n2)c1 (stereo partly shown) [Example 431-1a]	100 to 1000 nM	10000 to 20000 nM
CNCC(O)COc1cc(OC)cc(-c2nc(NC3CCOC3)c(C)c(N3CCN(C(C)=O)[C@@H](C)C3)n2)c1 (stereo partly shown) [Example 432-1a]	100 to 1000 nM	10000 to 20000 nM
CNCC(O)COc1cccc(-c2nc(N[C@@H]3CCOC3)c(F)c(N3CCOCC3)n2)c1 (stereo partly shown) [Example 433-1a]	100 to 1000 nM	5000 to 10000 nM
CNCC(O)COc1cccc(-c2nc(N[C@@H]3CCOC3)c(C)c(N3CCN(C(C)=O)CC34CC4)n2)c1 (stereo partly shown) [Example 438-1a]	100 to 1000 nM	10000 to 20000 nM
CNCC(O)COc1cccc(-c2nc(N[C@@H]3CCOC3)c(C)c(N3CCC[C@@H]3C(=O)NC)n2)c1 (stereo partly shown) [Example 450-1a]	100 to 1000 nM	10000 to 20000 nM
CNCC(O)COc1cccc(-c2nc(N[C@@H]3CCOC3)c(C)c(-c3cnccn3)n2)c1 (stereo partly shown) [Example 451-1a]	100 to 1000 nM	10000 to 20000 nM
CNC[C@@H](O)COc1cccc(-c2nc(N[C@@H]3CCOC3)c(C)c(-c3cn(S(C)(=O)=O)c4ncncc34)n2)c1 [Example 453-1a]	100 to 1000 nM	5000 to 10000 nM
CNCC(O)COc1cccc(-c2nc(N[C@@H]3CCOC3)c(C)c(-c3ccnnc3)n2)c1 (stereo partly shown) [Example 459-1a]	100 to 1000 nM	10000 to 20000 nM
CNCC(O)COc1cccc(-c2nc(N[C@@H]3CCOC3)c(C)c(-c3c(C)ncnc3C)n2)c1 (stereo partly shown) [Example 460-1a]	100 to 1000 nM	10000 to 20000 nM
CNCC(O)COc1cccc(-c2nc(N[C@@H]3CCOC3)c(C)c(N3CCCC3c3nc(C)no3)n2)c1 (stereo partly shown) [Example 472-1a]	100 to 1000 nM	10000 to 20000 nM
CNCC(O)COc1cccc(-c2nc(N3CCCC4(CCOCC4)C3)cc(N(C)C3CCOCC3)n2)c1 (stereo not shown) [Example 494-1a]	100 to 1000 nM	< 5000 nM
CCS(=O)(=O)N1CCN(c2cc(N(C)C3CCOCC3)nc(-c3cccc(OCC(O)CNC)c3)n2)C[C@@H]1C (stereo partly shown) [Example 497-1a]	100 to 1000 nM	< 5000 nM
CNCC(O)COc1cccc(-c2nc(C3CCN(C(=O)N(C)C)CC3)cc(N(C)C3CCOCC3)n2)c1 (stereo not shown) [Example 515-1a]	100 to 1000 nM	5000 to 10000 nM
CNCC(O)COc1cccc(-c2nc(N3CCN(CC(F)F)CC3)cc(N(C)C3CCOCC3)n2)c1 (stereo not shown) [Example 518-1a]	100 to 1000 nM	5000 to 10000 nM
CNCC(O)COc1cccc(-c2nc(N3CCN(S(C)(=O)=O)[C@@H](C)C3)cc(N(C)C3CCOCC3)n2)c1 (stereo partly shown) [Example 520-1a]	100 to 1000 nM	5000 to 10000 nM
CNCC(O)COc1cccc(-c2nc(N3CCN(C(C)=O)C4(CC4)C3)cc(N(C)C3CCOCC3)n2)c1 (stereo not shown) [Example 523-1a]	100 to 1000 nM	5000 to 10000 nM
CNCC(O)COc1cccc(-c2nc(C3CCN(S(C)(=O)=O)CC3)cc(N(C)C3CCOCC3)n2)c1 (stereo not shown) [Example 527-1a]	100 to 1000 nM	5000 to 10000 nM
CNCC(O)COc1cccc(-c2nc(C(=O)NC3CCOCC3)cc(N(C)C3CCOCC3)n2)c1 (stereo not shown) [Example 530-1a]	100 to 1000 nM	5000 to 10000 nM

Structure (SMILES)	IC50 [1]	IC50 [2]
CNCC(O)COc1cccc(-c2nc(N(C)c3cnc(OC)nc3)cc(N(C)C3CCOCC3)n2)c1 (stereo not shown) [Example 532-1a]	100 to 1000 nM	5000 to 10000 nM
CNCC(O)COc1cccc(-c2nc(C3CCN(C(=O)OC)CC3)cc(N(C)C3CCOCC3)n2)c1 (stereo not shown) [Example 533-1a]	100 to 1000 nM	5000 to 10000 nM
CNCC(O)COc1cccc(-c2nc(-c3c(C)n[nH]c3C)cc(N(C)C3CCOCC3)n2)c1 (stereo not shown) [Example 534-1a]	100 to 1000 nM	5000 to 10000 nM
CNCC(O)COc1cccc(-c2nc(-c3ccnc(C(=O)N(C)C)c3)cc(N(C)C3CCOCC3)n2)c1 (stereo not shown) [Example 535-1a]	100 to 1000 nM	5000 to 10000 nM
CNCC(O)COc1cccc(-c2nc(N3C[C@@H]4CCCN(C(C)=O)[C@@H]4C3)cc(N(C)C3CCOCC3)n2)c1 (stereo partly shown) [Example 539-1a]	100 to 1000 nM	10000 to 20000 nM
CNCC(O)COc1cccc(-c2nc(NCC3CCOCC3)cc(N(C)C3CCOCC3)n2)c1 (stereo not shown) [Example 540-1a]	100 to 1000 nM	10000 to 20000 nM
CNCC(O)COc1cccc(-c2nc(N(C)C3CCOCC3)c(C)c(C(C)(C)O)n2)c1 (stereo not shown) [Example 545-1a]	100 to 1000 nM	10000 to 20000 nM
CNCC(O)COc1cccc(-c2nc(C3CCN(C(C)=O)CC3)cc(N(C)C3CCOCC3)n2)c1 (stereo not shown) [Example 546-1a]	100 to 1000 nM	10000 to 20000 nM
CNCC(O)COc1cccc(-c2nc(N3CC[C@H](N(C)C(C)=O)C3)cc(N(C)C3CCOCC3)n2)c1 (stereo partly shown) [Example 547-1a]	100 to 1000 nM	10000 to 20000 nM
CNCC(O)COc1cccc(-c2nc(-c3ncc[nH]3)cc(N(C)C3CCOCC3)n2)c1 (stereo not shown) [Example 550-1a]	100 to 1000 nM	10000 to 20000 nM
CNCC(O)COc1cccc(-c2nc(Nc3ncc(OC)cn3)cc(N(C)C3CCOCC3)n2)c1 (stereo not shown) [Example 551-1a]	100 to 1000 nM	10000 to 20000 nM
CNCC(O)COc1cccc(-c2nc(N(C)C3CCOCC3)cc(N3CCN(C(C)=O)CC34CC4)n2)c1 (stereo not shown) [Example 552-1a]	100 to 1000 nM	10000 to 20000 nM
CNCC(O)COc1cccc(-c2nc(N3CC4(CCOCC4)C3)cc(N(C)C3CCOCC3)n2)c1 (stereo not shown) [Example 553-1a]	100 to 1000 nM	10000 to 20000 nM
CNCC(O)COc1cccc(-c2nc(C(=O)NC)cc(N(C)C3CCOCC3)n2)c1 (stereo not shown) [Example 554-1a]	100 to 1000 nM	10000 to 20000 nM
CNCC(O)COc1cccc(-c2nc(Nc3c(C)nn(C)c3C)cc(N(C)C3CCOCC3)n2)c1 (stereo not shown) [Example 555-1a]	100 to 1000 nM	10000 to 20000 nM
CNCC(O)COc1cccc(-c2nc(-c3c(C)ncnc3C)cc(N(C)C3CCOCC3)n2)c1 (stereo not shown) [Example 556-1a]	100 to 1000 nM	10000 to 20000 nM
CNCC(O)COc1cc(Cl)cc(-c2nc(C(=O)N(C)C)cc(N(C)C3CCOCC3)n2)c1 (stereo not shown) [Example 557-1a]	100 to 1000 nM	10000 to 20000 nM
CNCC(O)COc1cccc(-c2nc(N3CCC4(CCOC4)CC3)cc(N(C)C3CCOCC3)n2)c1 (stereo not shown) [Example 582-1a]	100 to 1000 nM	10000 to 20000 nM
CNCC(O)COc1cccc(-c2nc(-c3nccn3C)cc(N(C)C3CCOCC3)n2)c1 (stereo not shown) [Example 583-1a]	100 to 1000 nM	10000 to 20000 nM
CNCC(O)COc1cccc(-c2nc(NCC3(CCl)CCOCC3)cc(N(C)C3CCOCC3)n2)c1 (stereo not shown) [Example 584-1a]	100 to 1000 nM	10000 to 20000 nM
CNCC(O)COc1cccc(-c2nc(N3CCN(C(=O)OC)CC3)cc(N(C)C3CCOCC3)n2)c1 (stereo not shown) [Example 585-1a]	100 to 1000 nM	10000 to 20000 nM
CNCC(O)COc1cccc(-c2nc(N3CCN(CC(F)(F)F)CC3)cc(N(C)C3CCOCC3)n2)c1 (stereo not shown) [Example 586-1a]	100 to 1000 nM	10000 to 20000 nM
